Numbers after ± are expanded uncertainties.
Details: 88 kPa, Liquid, Vibrating tube method

mass density (298.15 K) [kg/m3]	mass density (313.15 K) [kg/m3]	mass density (333.15 K) [kg/m3]	SMILES
1202.71 ± 4.2	1192.29 ± 4.2	1178.73 ± 4.2	CCCCn1cc[n+](C)c1.F[B-](F)(F)F [1-butyl-3-methylimidazolium tetrafluoroborate]
1063.86 ± 4.1	1054.55 ± 4.1	1042.42 ± 4.1	CCCCCCCCn1cc[n+](C)c1.O=[N+]([O-])[O-] [1-methyl-3-octylimidazolium nitrate]

SMILES	mass density (298.15 K) [kg/m3]	mass density (313.15 K) [kg/m3]	mass density (333.15 K) [kg/m3]
CCCCCCn1cc[n+](C)c1.N#C[S-] [1-hexyl-3-methylimidazolium thiocyanate]	1036.21 ± 4.1	1027.55 ± 4.1	1016.12 ± 4.1

From the NIST ThermoML archive (doi:10.1021/acs.jced.5b00894)
